Assay results as given in patent US20140007865A1, “OLOPATADINE NASAL SPRAY REGIMEN FOR CHILDREN” (Alcon Research, Ltd., priority 2009, published 2014).

Assay: Acid-base equilibrium (pKa) of olopatadine
Format: physicochemical
From the text: Olopatadine has both a carboxylic functional group (pKa1=4.18) and a tertiary amino group (pKa2=9.79). It exists in different ionic forms depending upon the pH of the solution. Olopatadine exists predominantly as a zwitterion in the pH range between the two pKa values with a negatively-charged carboxylic group and a positively-charged tertiary amino group. The iso-electric point of the olopatadine zwitterion is at pH 6.99. At a pH lower than pKa1, cationic olopatadine (with ionized tertiary amino group) is dominant. At a pH higher than pKa2, anionic olopatadine (with ionized carboxylic group) is dominant.

iso-electric point of the olopatadine zwitterion: 6.99 pH
pKa1 (carboxylic functional group): 4.18
pKa2 (tertiary amino group): 9.79
SMILES: CN(C)CC/C=C1/c2ccccc2COc2ccc(CC(=O)O)cc21 [Olopatadine, Z-11-(3-dimethylaminopropylidene)-6,1′-dihydrodibenz[b,e]oxepine-2-acetic acid]
